The values below come from US20250000979A1, “TRIPLET-TRIPLET ENERGY TRANSFER WITH LIGHT EXCITATION AT LONG WAVELENGTHS AND METHODS THEREOF” (priority 2023, published 2025).

One data set deals with HeLa tumor. The experiment in a line: In vivo light-triggered prodrug activation and tumor inhibition. More on the design: species or system BALB/c nude mice. Conditions: 8 mg/kg intravenous Day 1 and 6, no light. The procedure:
Encouraged by the anti-proliferation effect and tumor retention capability, Os/BC NPs were considered as an applicable agent for light-triggered drug release and photoactivated cancer chemotherapy. The HeLa tumor-bearing mice were randomly divided into […] (n=5) when the tumors reached at around […]. PBS, free Cb (8 mg/kg), Os NPs (at the equivalent concentration of Os in Os/BC NPs), BC NPs (at the equivalent concentration of Cb) and Os/BC NPs (at the equivalent concentration of Cb) were intravenously injected on Day 1 (FIG. 6C). At 24 h post injection, NIR-light irradiation (690 nm, 300 mW/cm^2, 10 min) was applied topically onto the tumor area (FIG. 6D). The formulation injection and light irradiation were repeated on Day 6 and 7, respectively. For evaluating therapeutic efficacy, tumor volume was recorded within the treatment period. […] However, no statistical difference was found between Group 3 and Groups 1, 2, 4 and 5. […] Hematoxylin and eosin (H&E) staining assay was conducted to investigate the pathology of the tumors and organs. […]
The anti-tumor efficacy of the formulations in presence or absence of light was investigated with HeLa tumor-bearing mice. […] Tumor sizes and body weights were measured during the period, and the tumor volume was calculated as V=½×width^2×length. […]

The conditions of data set [1]: N2-saturated solution without quencher; cited from earlier work.
Data set [2] is described as follows: Encapsulation efficiency and loading capacity of Os/BC NP (HPLC). As to conditions: component of Os/BC NP. It is filed as physicochemical. As to the method:
Flash nanoprecipitation method was used to fabricate the photosensitizer/prodrug-loading nanoparticles. […] Different formulations (Os NPs, BC NPs and Os/BC NPs) were then prepared with optimized ratios of components. Briefly, 224 μL of the mixed stock solution was added into 1.8 mL N2-saturated water under vortexing. The resulted solutions were added to dialysis bags (MW: 3400 Da) and dialyzed against 4 L of water for 24 h. The water out of dialysis bag was renewed every 8 h. The resulted solution of NPs was collected and filtrated with 220 nm filter. Finally, the NPs solutions were concentrated by ultrafiltration (Mw=100 kDa, 2000×g, 10 min) and stored at 4° C. until use. The concentrations of each component were measured by using HPLC. Loading capacity and encapsulation efficiency were calculated as follow: […]

The nature of data set [3]: Stern-Volmer phosphorescence quenching assay (TTET from Os(bptpy)2^2+ to BODIPY-Cb). It is filed as physicochemical. The procedure: The energy transfer quenching rate constants (kTTET) was measured by Stern-Volmer experiment. […] Oxygen was removed by nitrogen bubbling (50 mL/min) for 10 min.
Energy transfer quenching rate constants of this TTET process, quantified as kTTET, can be calculated based on the below equation (2)
(τ0: phosphorescence lifetime of Os(bptpy)2^2+ in N2-saturated solution without quencher.)
For Os(bptpy)2^2+, τ0=0.20 μs.

A short description of data set [4]: Photophysical properties (UV-Vis absorption, emission, energy levels). It is filed as physicochemical. As to conditions: for λabs, max (S0-S1): S0-S1 (1MLCT) absorption; for λabs, max (S0-S1) / λabs, max (S0-T1): dichloromethane with 2% acetone, 10 μM; for λabs, max (S0-T1): S0-T1 (3MLCT, S-T) absorption; for E (absorption coefficient, S0-T1 band): at 688 nm (S0-T1); for Energy level T1 state: calculated from maximum T1 (phosphorescence) emission wavelength. The source says: The absorption peak at about 492 nm is identified as the singlet metal-to-ligand charge transfer (^1MLCT) absorption, also termed as singlet-singlet (S-S) absorption. […] The two twistable bromophenyl groups of the bromophenyl terpyridine ligands extend the S-T absorption from 650 nm to 750 nm with increased absorption coefficient.
CombiFlash Rf chromatography instrument was purchased from Teledyne ISCO (Lincoln, USA) for chemical purification. Light sources used in this study were purchased from Yuanming Laser (Ningbo, China) and Mightex (CA, USA). The purity verification and photolysis study were conducted with a high-performance liquid chromatography (HPLC) system (Agilent technologies, 1260), attached with C-18 columns which were obtained from Agilent (Santa Clara, California, United States). Nuclear magnetic resonance (NMR) spectroscopy was collected by Bruker AVANCE III HD 500 spectrometer (MA, US). Fluorescence, phosphorescence and UV-vis spectra were collected by a SpectraMax M4 microplate reader (Molecular Devices, CA, US). The particle size and surface charge were recorded by a dynamic light scattering (DLS) device, Zetasizer Nano-ZS90 (Malvern instruments, UK). Transmission electron microscope (TEM) imaging was conducted on a Hitachi HT7700 TEM (Tokyo, Japan). ACEA NovoCyte Quanteon flow cytometer (ACEA Biosciences, CA, USA) was used for flow cytometry. In vivo and ex vivo imaging of the mice were conducted with an In Vivo Imaging System (PerkinElmer, USA). Devices for animal study like including balance and vernier caliper were kindly provided by The Centre for Comparative Medicine Research (CCMR), The University of Hong Kong.

The conditions of data set [5]: in toluene, calculated by TD-DFT, referred to previous studies; cited from earlier work.

Marks after values point to notes of the source that are not given here.

Regarding `O=C(O)CCCc1ccc(N(CCCl)CCCl)cc1` [chlorambucil], in the data set on HeLa tumor, the “tumor volume (anti-tumor effect)” value is “did not exhibit detectable anti-tumor effect”.

Take “Os (II) bromophenyl terpyridine complex [Os(bptpy)2^2+]”: the τ0 phosphorescence lifetime in data set [1] is given as 0.20 μs. Further, the “Encapsulation Efficiency” value in data set [2] was found to be 29.43%. Besides, in data set [2], the “Loading Capacity” value was 0.22%. Moreover, the Quenching constant kq result in data set [3] (10 μM Os(bptpy)2^2+, quencher BODIPY-Cb 0-7.5 μM, N2) is listed as “(5.491±0.282)×10^4 M^−1”. The “TTET rate constant (kTTET)” value in data set [3] (energy transfer from T1 of Os(bptpy)2^2+ to T1 of BODIPY-Cb) was “(2.72±0.14)×10^11 M^−1 s^−1”. Besides, the “λabs, max (S0-S1)” value is “about 492 nm” in data set [4] and 491 (S0-S1) nm in data set [4] (listed as Os(bptpy)2•2PF6). In addition, the entries for the “λabs, max (S0-T1)” value in data set [4] and in data set [4] (listed as Os(bptpy)2•2PF6) were 688 nm and 688 (S0-T1) nm, respectively. In addition, the “E (absorption coefficient, S0-S1 band)” value in data set [4] (at 491 nm (S0-S1)) came out at 73500 M⁻¹ cm⁻¹. The “E (absorption coefficient, S0-T1 band)” value in data set [4] and in data set [4] (listed as Os(bptpy)2•2PF6) was 26600 M⁻¹ cm⁻¹ in each case. Besides, the “Energy level S1 state” value in data set [4] (calculated by maximum S1 emission wavelength, E = 1240/λem, S1) is 2.56^h eV. The “Energy level T1 state” value in data set [4] (E = 1240/λem) is reported as 1.69 eV; in data set [4] (E = 1240/λem, listed as Os(bptpy)2•2PF6), 1.69^i eV. In addition, the “λem, max” value in data set [4] (λex = 491 nm) is given as 498^c nm; in data set [4] (λex = 688 nm), 734^d nm. The T1 lifetime in data set [5] is given as 0.20^f μs.
